We go through one compound from US5753710A, “Substituted benzyloxycarbonylguanidines, a process for their preparation, their use as a medicament or diagnostic, and a medicament containing them” (Hoechst Aktiengesellschaft, priority 1995, dated 1998).

In this test the target is T1, Na^+ /H^+ exchanger of rabbit erythrocytes (Oryctolagus cuniculus, UniProt P23791).
T1 construct: endogenous in cells; host or cells: erythrocytes in blood of cholesterol-fed New Zealand White rabbits (Ivanovas)
As to the kind of experiment: Inhibition of the Na^+ /H^+ exchanger of rabbit erythrocytes (amiloride-sensitive Na^+ influx, flame photometry). It counts as cell-based, rabbit (New Zealand White). Particulars: erythrocytes of rabbits fed 2% cholesterol diet for six weeks; pH 7.4, 37° C.; hyperosmolar salt/sucrose medium. From the text: Inhibition of the Na^+ /H^+ exchanger of rabbit erythrocytes
New Zealand White rabbits (Ivanovas) received a standard diet containing 2% cholesterol for six weeks in order to activate the Na^+ /H^+ exchange and thus to be able to determine, by flame photometry, the Na^+ influx into the erythrocytes via Na^+ /H^+ exchange. The blood was removed from the aural arteries and rendered incoagulable using 25 IU of potassium heparin. A part of each sample was used for the duplicate determination of the hematocrit by means of centrifugation. Aliquots of in each case 100 μl were used for measuring the initial Na^+ content of the erythrocytes.
In order to determine the amiloride-sensitive sodium influx, 100 μl of each blood sample were in each case incubated, at pH 7.4 and 37° C., in 5 ml of a hyperosmolar salt/sucrose medium (mmol/l: 140 NaCl, 3 KCl, 150 sucrose, 0.1 ouabain, 20 tris(hydroxymethyl)aminomethane). […] The intracellular sodium content was determined by flame photometry.
The net influx of Na^+ was calculated from the difference between the initial sodium values and the sodium content of the erythrocytes following incubation. The amiloride-inhibitable sodium influx was calculated from the difference in the sodium content of the erythrocytes following incubation with and without amiloride 3×10^-4 mol/l. […]

Structures can show the parent of a compound that is named as a salt. Bounds are passed on as bounds.

T1 sequence (P23791 whole entry): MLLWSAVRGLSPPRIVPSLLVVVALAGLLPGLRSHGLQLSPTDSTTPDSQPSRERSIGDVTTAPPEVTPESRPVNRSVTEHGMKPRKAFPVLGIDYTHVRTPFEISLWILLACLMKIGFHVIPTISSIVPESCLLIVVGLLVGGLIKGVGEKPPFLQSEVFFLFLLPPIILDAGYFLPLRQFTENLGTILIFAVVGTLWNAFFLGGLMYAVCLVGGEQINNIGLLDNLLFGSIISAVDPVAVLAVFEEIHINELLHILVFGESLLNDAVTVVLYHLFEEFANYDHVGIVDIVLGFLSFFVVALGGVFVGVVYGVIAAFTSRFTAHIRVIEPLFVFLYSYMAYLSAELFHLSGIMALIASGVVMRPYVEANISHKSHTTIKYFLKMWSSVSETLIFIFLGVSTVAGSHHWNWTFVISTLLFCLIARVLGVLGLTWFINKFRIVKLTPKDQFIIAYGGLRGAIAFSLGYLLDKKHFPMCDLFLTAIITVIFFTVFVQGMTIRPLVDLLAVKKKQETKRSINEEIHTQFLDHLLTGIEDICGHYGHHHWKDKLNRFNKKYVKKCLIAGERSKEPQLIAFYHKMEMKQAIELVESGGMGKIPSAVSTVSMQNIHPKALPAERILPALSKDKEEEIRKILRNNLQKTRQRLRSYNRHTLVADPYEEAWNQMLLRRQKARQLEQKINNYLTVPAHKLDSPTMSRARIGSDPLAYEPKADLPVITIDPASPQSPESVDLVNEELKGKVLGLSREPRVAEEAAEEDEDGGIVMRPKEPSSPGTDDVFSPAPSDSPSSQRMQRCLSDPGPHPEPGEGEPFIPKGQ

As usually defined, the IC50 is the concentration needed to halve the response being measured. As for `NC(N)=NC(=O)OCc1ccc(Oc2cccnc2)c(C(F)(F)F)c1` [Example 1, 4-(3-Pyridyloxy)-3-trifluoromethyl-benzyloxycarbonylguanidine, dihydrochloride], the IC50 is below 1 µM.
